Test [1] deals with CD69 expression on CD19+ B cells in human whole blood. As to the kind of experiment: In Vitro whole blood CD69 Assay. The class given is cell-based. The note with it: B-cell, human heparinized whole blood, anti-human IgD stimulation. The procedure:
In Vitro whole blood CD69 Assay
Human heparinized venous blood from health donors was aliquoted into 96-well plate and “spiked” with serial dilutions of formula I compounds in DMSO or with DMSO without drug. The final concentration of DMSO in all wells was 0.1%. The plate was incubated at 37° C. for 30 min. Drug-containing samples were stimulated with 0.1 μg/mL mouse anti-human IgD-dextran (1A^62) or 20 μg/mL polyclonal rabbit F(ab′)2 anti-human IgD. Phosphate-buffered saline (PBS) was added to the negative control unstimulated sample and the plates were incubated overnight (18 to 22 hours) at 37° C. Cells were stained with fluorochrome-conjugated anti-CD19 and anti-CD69 antibodies. Lyse/fix solution was used to remove red blood cells by hypotonic lysis and to fix the remaining cells, which were then analyzed by flow cytometry. CD19+ B cells were gated and analyzed for CD69 expression. The percentage of B cells expressing CD69 was plotted versus the log 10 of the concentration of the drug and the best-fit curves (variable Hill slope) were generated to obtain the IC50 value.

The next test concerns the target BTK (Homo sapiens (Human), UniProt Q06187). Description: In Vitro BTK Kinase Assay: Btk-PolyGAT-LS Assay. The note with it: ATP 10 μM, polyGAT 100 nM, BTK 0.25 nM. Type of test: biochemical. As to the method: In Vitro BTK Kinase Assay: Btk-PolyGAT-LS Assay
The purpose of the BTK in vitro assay is to determine compound potency against BTK through the measurement of IC50. Compound inhibition is measured after monitoring the amount of phosphorylation of a fluorescein-labeled polyGAT peptide (Invitrogen PV3611) in the presence of active BTK enzyme (Upstate 14-552), ATP, and inhibitor. The BTK kinase reaction was done in a black 96 well plate (costar 3694). For a typical assay, a […] aliquot of a ATP/peptide master mix (final concentration; ATP 10 μM, polyGAT 100 nM) in kinase buffer (10 mM Tris-HCl pH 7.5, 10 mM MgCl2, 200 μM Na3PO4, 5 mM DTT, 0.01% Triton X-100, and 0.2 mg/ml casein) is added to each well. Next, […] of a 4-fold, 40× compound titration in 100% DMSO solvent is added, followed by adding 15 uL of BTK enzyme mix in 1× kinase buffer (with a final concentration of 0.25 nM). The assay is incubated for 30 minutes before being stopped with […] of a 50 mM EDTA solution. Aliquots (5 uL) of the kinase reaction are transferred to a low volume white 384 well plate (Coming 3674), and 5 pL of a 2× detection buffer (Invitrogen PV3574, with 4 nM Tb-PY20 antibody, Invitrogen PV3552) is added. The plate is covered and incubated for 45 minutes at room temperature. Time resolved fluorescence (TRF) on Molecular Devices M5 (332 nm excitation; 488 nm emission; 518 nm fluorescein emission) is measured. IC50 values are calculated using a four parameter fit with 100% enzyme activity determined from the DMSO control and 0% activity from the EDTA control.
“†” represents an IC50 of greater than 1 μM and equal to or less than 10 μM. “††” represents an IC50 of greater than 10 nM and equal to or less than 1 μM (10 nM<IC50≤1 μM). “†††” represents an IC50 of greater than 1 nM and equal to or less than 10 nM (1 nM<IC50≤10 nM).

The structures appear in SMILES notation.

Sequence of BTK (Q06187 whole entry): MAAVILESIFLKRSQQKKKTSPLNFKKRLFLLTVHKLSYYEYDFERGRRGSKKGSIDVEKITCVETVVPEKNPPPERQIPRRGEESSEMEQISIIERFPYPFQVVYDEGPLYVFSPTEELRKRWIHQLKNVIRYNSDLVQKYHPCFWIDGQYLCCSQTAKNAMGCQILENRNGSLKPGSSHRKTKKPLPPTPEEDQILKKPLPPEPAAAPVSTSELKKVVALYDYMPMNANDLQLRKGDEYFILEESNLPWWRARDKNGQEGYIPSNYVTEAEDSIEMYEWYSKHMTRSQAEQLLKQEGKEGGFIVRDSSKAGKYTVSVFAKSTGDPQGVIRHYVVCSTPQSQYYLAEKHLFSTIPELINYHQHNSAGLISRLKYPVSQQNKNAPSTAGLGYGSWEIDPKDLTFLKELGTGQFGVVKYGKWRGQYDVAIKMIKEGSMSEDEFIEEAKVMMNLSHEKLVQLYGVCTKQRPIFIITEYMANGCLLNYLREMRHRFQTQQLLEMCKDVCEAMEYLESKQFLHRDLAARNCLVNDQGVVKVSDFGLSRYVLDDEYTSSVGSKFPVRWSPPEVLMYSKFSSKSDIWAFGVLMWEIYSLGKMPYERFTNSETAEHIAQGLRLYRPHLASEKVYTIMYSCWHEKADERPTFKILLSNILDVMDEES

As usually defined, the IC50 is the midpoint of a concentration-inhibition curve. A higher IC50 goes with a need for much substance. Turning to `Cc1cc(-c2ncnn3cccc23)ccc1CN1CCN(CC(C)C)C(C)C1=O` (stereo not shown) [Compound 2, 4-isobutyl-3-methyl-1-(2-methyl-4-(pyrrolo[2,1-f][1,2,4]triazin-4-yl)benzyl)piperazin-2-one], the IC50 in test [1] was at least 10 µM; on BTK it was 0.01 to 1 µM. In the same order, the values of `Cc1cc(-c2ncnn3cccc23)ccc1CN1CCNC(C)C1=O` (stereo not shown) [Compound 1, 3-methyl-1-(2-methyl-4-(pyrrolo[2,1-f][1,2,4]triazin-4-yl)benzyl)piperazin-2-one] are at least 10 µM and 1 to 10 µM.

`Cc1cc(-c2ncnn3cccc23)ccc1CN1CCN(C2CC(F)(F)C2)C(C)C1=O` (stereo not shown) [Compound 3, 4-(3,3-difluorocyclobutyl)-3-methyl-1-(2-methyl-4-(pyrrolo[2,1-f][1,2,4]triazin-4-yl)benzyl)piperazin-2-one]: the 50% inhibitory concentration (IC50) at BTK lay in the range of 1 to 10 µM. `Cc1cc(-c2ncnn3cc(-c4cnn(C)c4)cc23)ccc1CN1CCN(CC(C)C)C(C)C1=O` (stereo not shown) [Compound 4, 4-isobutyl-3-methyl-1-(2-methyl-4-(6-(1-methyl-1H-pyrazol-4-yl)pyrrolo[2,1-f][1,2,4]triazin-4-yl)benzyl)piperazin-2-one]: the IC50 was at least 10 µM in test [1] and 0.001 to 0.01 µM against BTK.

Values taken from patent publication US12565500B2, “Substituted pyrrolo[1,2-b]pyridazines and pyrrolo[2,1-f][1,2,4]triazines as Btk inhibitors” (BIOGEN MA INC., priority 2019, dated 2026).
